Results published in BindingDB's records for doi:10.1016/j.ejmech.2015.07.016 (China Pharmaceutical University, 2015).
Square brackets hold non-standard residues; d marks the D form. Peptide text beside a SMILES is read from it. pGlu = O=C1CC[C@@H](C(=O)O)N1

Columns and labels:
[1] = Antagonist activity at GP2b/3a receptor in New Zealand rabbit platelet-rich plasma assessed as inhibition of ADP-induced platelet aggregation preincubated for 1 min followed by addition of ADP by aggregometer
[2] = Antagonist activity at GP2b/3a receptor in New Zealand rabbit platelet-rich plasma assessed as inhibition of U46619-induced platelet aggregation preincubated for 1 min followed by addition of ADP by aggregometer
[3] = Antagonist activity at GP2b/3a receptor in New Zealand rabbit platelet-rich plasma assessed as inhibition of thrombin-induced platelet aggregation preincubated for 1 min followed by addition of ADP by aggregometer
[4] = Antagonist activity at GP2b/3a receptor in New Zealand rabbit platelet-rich plasma assessed as inhibition of collagen-induced platelet aggregation preincubated for 1 min followed by addition of ADP by aggregometer

Row | IC50 [1] | Compound | further results
1 | 94.4 µM | O=C(N[C@@H](Cc1c[nH]c2ccc(OCCCCC3CCNCC3)cc12)C(=O)O)c1ccc(F)cc1 | –
2 | 93.1 µM | O=C(O)[C@H](Cc1c[nH]c2ccc(OCCCCC3CCNCC3)cc12)NS(=O)(=O)c1ccc(F)cc1 | –
3 | > 500 µM | COc1ccc(C(=O)N[C@@H](Cc2c[nH]c3ccc(OCCCCC4CCNCC4)cc23)C(=O)O)cc1 | –
4 | 488 µM | O=C(N[C@@H](Cc1c[nH]c2ccc(OCCCCC3CCNCC3)cc12)C(=O)O)c1ccc([N+](=O)[O-])cc1 | –

The remaining lines, values behind:

Row | Compound | IC50 [1] | further results
5 | O=C(O)[C@H](Cc1c[nH]c2ccc(OCCCCC3CCNCC3)cc12)NS(=O)(=O)c1ccccc1 | 95.7 µM | –
6 | Cc1ccc(S(=O)(=O)N[C@@H](Cc2c[nH]c3ccc(OCCCCC4CCNCC4)cc23)C(=O)O)cc1 | 108 µM | –
7 | O=C(O)[C@H](Cc1c[nH]c2ccc(OCCCCC3CCNCC3)cc12)NS(=O)(=O)c1ccc([N+](=O)[O-])cc1 | 425 µM | –
8 | O=C(N[C@@H](Cc1c[nH]c2ccc(OCCCCC3CCNCC3)cc12)C(=O)O)c1ccccc1 | > 500 µM | –
9 | O=C(O)[C@H](Cc1c[nH]c2ccc(OCCCCC3CCNCC3)cc12)NS(=O)(=O)c1ccc(Br)cc1 | 24.8 µM | IC50 [2]: 590 µM; IC50 [3]: 124 µM; IC50 [4]: 683 µM
10 | NC(=O)C[C@H](NC(=O)[C@@H]1CCC(=O)N1)C(=O)N[C@@H](Cc1c[nH]c2ccccc12)C(=O)O ([pGlu]-Asn-Trp-OH) | > 500 µM | –
11 | O=C(N[C@@H](Cc1c[nH]c2ccc(OCCCCC3CCNCC3)cc12)C(=O)O)c1cc(Cl)cc(Cl)c1 | 86.5 µM | –
12 | O=C(N[C@@H](Cc1c[nH]c2ccc(OCCCCC3CCNCC3)cc12)C(=O)O)c1cccc(F)c1 | 96.1 µM | –
13 | COc1ccc(S(=O)(=O)N[C@@H](Cc2c[nH]c3ccc(OCCCCC4CCNCC4)cc23)C(=O)O)cc1 | > 500 µM | –
